PMC5546936, “CLE42 binding induces PXL2 interaction with SERK2” (Protein & Cell, 2017)
Where a SMILES comes first, the peptide text is derived from it. Where no end group is shown, it is not given here. [ ]: non-standard residue; d: D form. Hyp = O=C(O)[C@@H]1C[C@@H](O)CN1

Experiments:
[1] = biological target: T1, PXL2LRR (extracellular LRR domain protein of PXL2) (Arabidopsis thaliana, UniProt Q9M0G7); assay: biochemical; assay type: binding
T1 construct: The LRR domain of PXL2 (residues 1-633, PXL2LRR) from Arabidopsis with an engineered; 6xHis (C); made in house; host or cells: High Five insect cells (baculovirus, pFastBac 1)
Method: (C) Measurement of the binding affinity between PXL2^LRR and CLE42 by ITC. Top panel: twenty injections of CLE42 solution were titrated into PXL2^LRR in the ITC cell. The area of each injection peak corresponds to the total heat released for that injection. Bottom panel: the binding isotherm for PXL2^LRR-CLE42 interaction. The integrated heat is plotted against the molar ratio between CLE42 and PXL2^LRR. […] The assay was performed as described in (C).

[2] = biological target: extracellular LRR domain protein of PXL2 (PXL2^LRR) (Arabidopsis thaliana); assay: ITC; twenty injections of peptide solution titrated into PXL2^LRR in the ITC cell

T1 sequence (Q9M0G7 24-633): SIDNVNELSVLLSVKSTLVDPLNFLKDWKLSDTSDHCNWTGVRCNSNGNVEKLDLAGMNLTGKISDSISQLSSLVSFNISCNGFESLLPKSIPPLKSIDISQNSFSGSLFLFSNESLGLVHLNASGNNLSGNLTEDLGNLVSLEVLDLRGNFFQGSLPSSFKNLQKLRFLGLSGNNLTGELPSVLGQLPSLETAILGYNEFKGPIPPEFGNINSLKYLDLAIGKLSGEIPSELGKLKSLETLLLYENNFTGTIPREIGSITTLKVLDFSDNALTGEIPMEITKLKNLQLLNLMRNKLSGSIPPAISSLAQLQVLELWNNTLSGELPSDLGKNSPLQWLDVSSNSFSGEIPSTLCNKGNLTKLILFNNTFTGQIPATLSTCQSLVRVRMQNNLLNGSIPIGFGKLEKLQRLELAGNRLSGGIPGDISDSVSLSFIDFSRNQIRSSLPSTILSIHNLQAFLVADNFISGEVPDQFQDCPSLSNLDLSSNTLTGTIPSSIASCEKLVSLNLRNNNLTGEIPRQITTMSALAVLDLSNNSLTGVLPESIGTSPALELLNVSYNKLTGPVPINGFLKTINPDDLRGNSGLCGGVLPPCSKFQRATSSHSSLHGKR

Kd [2] [µM]	Molecule	Kd [1] [µM]	further results
	CC[C@H](C)[C@H](NC(=O)[C@@H]1CCCN1C(=O)[C@H](CC(N)=O)NC(=O)[C@@H]1C[C@@H](O)CN1C(=O)CNC(=O)[C@H](CO)NC(=O)[C@@H]1C[C@@H](O)CN1C(=O)[C@@H](NC(=O)[C@H](CCC(=O)O)NC(=O)[C@@H](N)Cc1c[nH]cn1)C(C)C)C(=O)N[C@@H](CO)C(=O)N[C@@H](CC(N)=O)C(=O)O [CLE41, His-Glu-Val-Hyp-Ser-Gly-Hyp-Asn-Pro-Ile-Ser-Asn] (H-HEV[Hyp]SG[Hyp]NPISN-OH)	10	
	CC[C@H](C)[C@H](NC(=O)[C@@H]1CCCN1C(=O)[C@H](CC(N)=O)NC(=O)[C@@H]1C[C@@H](O)CN1C(=O)CNC(=O)[C@H](CO)NC(=O)[C@@H]1C[C@@H](O)CN1C(=O)[C@@H](NC(=O)CNC(=O)[C@@H](N)Cc1c[nH]cn1)C(C)C)C(=O)N[C@@H](CO)C(=O)N[C@@H](CC(N)=O)C(=O)O [CLE42, His-Gly-Val-Hyp-Ser-Gly-Hyp-Asn-Pro-Ile-Ser-Asn] (H-HGV[Hyp]SG[Hyp]NPISN-OH)	2.75	
	RLV[Hyp]SG[Hyp]NPLHH [CLE13, negative control]		interaction with PXL2LRR by ITC ([1]; ITC200, 25 °C, 10 mM Bis-Tris pH 6.0, 100 mM NaCl, approximately 0.5 mM peptide, 0.05 mM PXL2LRR, repeated at least three times, negative control): no detectable interaction
2.75	HGV[Hyp]SG[Hyp]NPISN [CLE42]		
10	HEV[Hyp]SG[Hyp]NPISN [CLE41/44 or TDIF (tracheary elements differentiation inhibitory factor)]		
